Experimental data reported in PubChem BioAssay AID2060602 (Molecular Pharmacology Branch, DTP, NCI, 2025).

System: 648629-189-R-J1-PDC complex spheroids viability
Assay: Anticancer human tumor 648629-189-R-J1-PDC patient-derived bladder carcinoma cell line growth inhibition [CLK]
Settings: for IC50: curve of first compound; for viability, T/C: stronger effect = lower value
How it was run: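 Patient-derived tumor cells grown as complex spheroids with HUVEC endothelial cells and mesenchymal stem cells, treated with drug combinations. Concentrations descend in half-log steps from near clinical Cmax, or from 10 microM if Cmax unknown.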
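Wherever viability, T/C is given: drug exposure lasted seven days before viability readout; 100% = DMSO vehicle control wells.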

IC50 (second compound 0.0316 µM): > 100 nM
IC50 (second compound 0.1 µM): > 100 nM
IC50 (second compound 0.316 µM): < 0.316 nM
IC50 (second compound 1 µM): < 0.316 nM
IC50 (second compound 3.16 µM): < 0.316 nM
IC50 (second compound 10 µM): < 0.316 nM
Structure (SMILES): Cn1ncnc1[C@H]1c2n[nH]c(=O)c3cc(F)cc(c23)N[C@@H]1c1ccc(F)cc1 + CNC(=O)c1ccc(Nc2nc(OC3CCCC3)c3c(-c4ccc5nc(C)oc5c4)c[nH]c3n2)c(OC)c1
viability, T/C (second compound 0.0316 µM, first compound 0.000316 µM): 112%
viability, T/C (second compound 0.0316 µM, first compound 0.001 µM): 98.1%
viability, T/C (second compound 0.0316 µM, first compound 0.00316 µM): 95.4%
viability, T/C (second compound 0.0316 µM, first compound 0.01 µM): 102%
viability, T/C (second compound 0.0316 µM, first compound 0.0316 µM): 81.4%
viability, T/C (second compound 0.0316 µM, first compound 0.1 µM): 73.6%
viability, T/C (second compound 0.1 µM, first compound 0.000316 µM): 86%
viability, T/C (second compound 0.1 µM, first compound 0.001 µM): 86.3%
viability, T/C (second compound 0.1 µM, first compound 0.00316 µM): 81.5%
viability, T/C (second compound 0.1 µM, first compound 0.01 µM): 83%
viability, T/C (second compound 0.1 µM, first compound 0.0316 µM): 68.3%
viability, T/C (second compound 0.1 µM, first compound 0.1 µM): 75.8%
viability, T/C (second compound 0.316 µM, first compound 0.000316 µM): 25.7%
viability, T/C (second compound 0.316 µM, first compound 0.001 µM): 25.6%
viability, T/C (second compound 0.316 µM, first compound 0.00316 µM): 30%
viability, T/C (second compound 0.316 µM, first compound 0.01 µM): 21%
viability, T/C (second compound 0.316 µM, first compound 0.0316 µM): 22.4%
viability, T/C (second compound 0.316 µM, first compound 0.1 µM): 21.3%
viability, T/C (second compound 1 µM, first compound 0.000316 µM): 18.4%
viability, T/C (second compound 1 µM, first compound 0.001 µM): 18.9%
viability, T/C (second compound 1 µM, first compound 0.00316 µM): 17.2%
viability, T/C (second compound 1 µM, first compound 0.01 µM): 18.1%
viability, T/C (second compound 1 µM, first compound 0.0316 µM): 15.6%
viability, T/C (second compound 1 µM, first compound 0.1 µM): 12.5%
viability, T/C (second compound 3.16 µM, first compound 0.000316 µM): 19.2%
viability, T/C (second compound 3.16 µM, first compound 0.001 µM): 18.4%
viability, T/C (second compound 3.16 µM, first compound 0.00316 µM): 19.3%
viability, T/C (second compound 3.16 µM, first compound 0.01 µM): 16.3%
viability, T/C (second compound 3.16 µM, first compound 0.0316 µM): 17%
viability, T/C (second compound 3.16 µM, first compound 0.1 µM): 16.6%
viability, T/C (second compound 10 µM, first compound 0.000316 µM): 18.1%
viability, T/C (second compound 10 µM, first compound 0.001 µM): 19.5%
viability, T/C (second compound 10 µM, first compound 0.00316 µM): 20.3%
viability, T/C (second compound 10 µM, first compound 0.01 µM): 17.7%
viability, T/C (second compound 10 µM, first compound 0.0316 µM): 19.4%
viability, T/C (second compound 10 µM, first compound 0.1 µM): 14.8%
